# Source: patent publication US10870647B2, “Imidazopyridine derivative, method for preparing same, and pharmaceutical composition containing same as active ingredient for preventing or treating cancer” (DAEGU-GYEONGBUK MEDICAL INNOVATION FOUNDATION, priority 2016, dated 2020)
# Tests used:
# Assay in all cases: Kinase selectivity, scanMAX Kinase assay panel (DiscoverX), % control at 1 uM
# Assay type in all cases: binding
# [1] = biological target: T1, scanMAX Kinase assay panel (Homo sapiens, UniProt O75914); details: PAK3; 1 uM; read-out: Percent Control (%)
# T1 construct: purchased DiscoverX
# Summary of the method: (§1)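 Each kinase was first exposed to the test compound at 1 uM in DMSO. Signal was then normalised to positive and negative controls to give % control. Finally, any enzyme showing <35% control was judged inhibited.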
# [2] = biological target: T2, scanMAX Kinase assay panel (Homo sapiens, UniProt P0C264); details: SgK110; 1 uM; read-out: Percent Control (%)
# T2 construct: purchased DiscoverX
# T2 sequence (P0C264 1-359): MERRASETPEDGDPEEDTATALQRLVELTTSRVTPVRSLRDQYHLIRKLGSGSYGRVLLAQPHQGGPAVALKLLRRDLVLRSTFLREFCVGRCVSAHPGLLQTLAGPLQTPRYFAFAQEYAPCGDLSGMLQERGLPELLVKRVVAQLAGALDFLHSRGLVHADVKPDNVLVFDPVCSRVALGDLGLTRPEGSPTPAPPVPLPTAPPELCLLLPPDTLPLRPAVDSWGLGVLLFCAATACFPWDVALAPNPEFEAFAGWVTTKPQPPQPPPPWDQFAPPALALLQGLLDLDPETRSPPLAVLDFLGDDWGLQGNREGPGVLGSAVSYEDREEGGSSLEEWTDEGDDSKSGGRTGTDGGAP
# Summary of the method: as §1
# [3] = biological target: T3, scanMAX Kinase assay panel (Homo sapiens, UniProt Q52WX2); details: SBK1; 1 uM; read-out: Percent Control (%)
# T3 construct: purchased DiscoverX
# Summary of the method: as §1
# [4] = biological target: T4, scanMAX Kinase assay panel (Homo sapiens, UniProt Q7L7X3); details: TAOK1; 1 uM; read-out: Percent Control (%)
# T4 construct: purchased DiscoverX
# T4 sequence (Q7L7X3 1-1001): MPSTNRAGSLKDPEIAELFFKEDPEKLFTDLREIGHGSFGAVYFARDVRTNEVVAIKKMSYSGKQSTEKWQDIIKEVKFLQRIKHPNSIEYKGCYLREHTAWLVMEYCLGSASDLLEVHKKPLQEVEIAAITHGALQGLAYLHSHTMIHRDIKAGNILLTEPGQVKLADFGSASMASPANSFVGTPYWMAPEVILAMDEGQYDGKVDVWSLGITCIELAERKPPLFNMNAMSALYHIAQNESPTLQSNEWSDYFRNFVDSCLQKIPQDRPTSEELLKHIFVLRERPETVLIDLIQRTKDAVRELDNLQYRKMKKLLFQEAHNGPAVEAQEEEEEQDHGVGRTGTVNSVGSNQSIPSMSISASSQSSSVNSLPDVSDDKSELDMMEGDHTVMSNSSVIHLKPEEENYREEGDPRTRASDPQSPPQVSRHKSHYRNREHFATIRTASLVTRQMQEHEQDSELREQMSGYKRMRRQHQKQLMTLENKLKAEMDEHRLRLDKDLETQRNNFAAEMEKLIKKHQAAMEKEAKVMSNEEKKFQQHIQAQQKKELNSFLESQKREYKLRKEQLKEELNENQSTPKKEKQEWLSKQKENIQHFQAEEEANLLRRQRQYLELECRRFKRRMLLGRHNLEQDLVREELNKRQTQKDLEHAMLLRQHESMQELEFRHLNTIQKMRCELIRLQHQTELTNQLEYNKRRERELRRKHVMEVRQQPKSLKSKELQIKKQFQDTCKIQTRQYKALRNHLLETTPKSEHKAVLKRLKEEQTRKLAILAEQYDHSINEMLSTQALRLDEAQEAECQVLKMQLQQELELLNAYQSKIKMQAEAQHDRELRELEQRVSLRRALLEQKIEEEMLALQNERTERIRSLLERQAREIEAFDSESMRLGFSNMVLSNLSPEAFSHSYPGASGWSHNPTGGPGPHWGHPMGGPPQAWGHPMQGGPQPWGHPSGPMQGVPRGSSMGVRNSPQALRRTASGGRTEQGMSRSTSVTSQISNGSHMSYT
# Summary of the method: as §1
# [5] = biological target: T5, scanMAX Kinase assay panel (Homo sapiens, UniProt Q9BWU1); details: CDK11; 1 uM; read-out: Percent Control (%)
# T5 construct: purchased DiscoverX
# Summary of the method: as §1
# [6] = biological target: T6, scanMAX Kinase assay panel (Homo sapiens, UniProt Q9UF33); details: EPHA6; 1 uM; read-out: Percent Control (%)
# T6 construct: purchased DiscoverX
# T6 sequence (Q9UF33 23-1036): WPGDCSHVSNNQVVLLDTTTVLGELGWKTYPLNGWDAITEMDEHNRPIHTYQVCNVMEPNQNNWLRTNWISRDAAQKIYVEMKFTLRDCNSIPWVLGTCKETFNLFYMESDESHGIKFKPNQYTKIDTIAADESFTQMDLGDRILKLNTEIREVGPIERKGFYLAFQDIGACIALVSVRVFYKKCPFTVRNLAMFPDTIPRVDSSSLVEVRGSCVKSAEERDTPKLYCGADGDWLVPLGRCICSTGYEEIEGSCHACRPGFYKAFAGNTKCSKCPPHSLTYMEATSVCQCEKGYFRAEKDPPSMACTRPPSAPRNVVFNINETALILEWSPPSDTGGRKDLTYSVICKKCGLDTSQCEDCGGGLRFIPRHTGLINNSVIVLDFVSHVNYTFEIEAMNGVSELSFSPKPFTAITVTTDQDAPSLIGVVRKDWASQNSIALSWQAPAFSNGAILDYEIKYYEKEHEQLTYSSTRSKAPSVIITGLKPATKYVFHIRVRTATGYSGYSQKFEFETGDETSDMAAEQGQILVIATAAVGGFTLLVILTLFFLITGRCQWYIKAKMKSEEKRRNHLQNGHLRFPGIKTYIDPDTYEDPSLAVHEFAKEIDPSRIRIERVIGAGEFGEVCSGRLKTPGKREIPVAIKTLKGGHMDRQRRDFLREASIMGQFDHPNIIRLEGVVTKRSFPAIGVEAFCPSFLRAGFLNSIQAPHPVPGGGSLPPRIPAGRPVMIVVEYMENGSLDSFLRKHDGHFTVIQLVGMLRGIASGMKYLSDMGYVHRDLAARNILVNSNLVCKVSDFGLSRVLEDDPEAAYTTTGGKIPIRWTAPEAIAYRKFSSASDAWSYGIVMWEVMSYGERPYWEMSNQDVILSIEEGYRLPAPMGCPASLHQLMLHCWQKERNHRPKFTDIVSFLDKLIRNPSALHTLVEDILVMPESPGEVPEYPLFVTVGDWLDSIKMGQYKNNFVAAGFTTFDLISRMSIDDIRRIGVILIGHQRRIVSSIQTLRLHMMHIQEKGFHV
# Summary of the method: as §1
# T1 sequence (O75914 whole entry): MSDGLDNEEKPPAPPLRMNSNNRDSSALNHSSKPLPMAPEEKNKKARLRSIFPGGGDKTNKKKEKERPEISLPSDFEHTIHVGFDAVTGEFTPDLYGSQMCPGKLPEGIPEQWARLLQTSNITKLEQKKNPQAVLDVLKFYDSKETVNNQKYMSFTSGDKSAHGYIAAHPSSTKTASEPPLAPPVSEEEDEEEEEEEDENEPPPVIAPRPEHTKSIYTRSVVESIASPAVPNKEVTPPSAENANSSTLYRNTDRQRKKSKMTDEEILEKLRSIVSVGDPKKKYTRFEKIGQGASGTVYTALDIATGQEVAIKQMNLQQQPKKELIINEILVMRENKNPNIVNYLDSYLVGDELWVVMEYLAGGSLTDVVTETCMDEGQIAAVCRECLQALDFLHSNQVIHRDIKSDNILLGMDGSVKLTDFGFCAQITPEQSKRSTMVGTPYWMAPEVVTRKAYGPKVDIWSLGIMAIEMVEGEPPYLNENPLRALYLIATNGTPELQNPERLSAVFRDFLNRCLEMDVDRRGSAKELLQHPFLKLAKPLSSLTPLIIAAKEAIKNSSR
# T5 sequence (Q9BWU1 whole entry): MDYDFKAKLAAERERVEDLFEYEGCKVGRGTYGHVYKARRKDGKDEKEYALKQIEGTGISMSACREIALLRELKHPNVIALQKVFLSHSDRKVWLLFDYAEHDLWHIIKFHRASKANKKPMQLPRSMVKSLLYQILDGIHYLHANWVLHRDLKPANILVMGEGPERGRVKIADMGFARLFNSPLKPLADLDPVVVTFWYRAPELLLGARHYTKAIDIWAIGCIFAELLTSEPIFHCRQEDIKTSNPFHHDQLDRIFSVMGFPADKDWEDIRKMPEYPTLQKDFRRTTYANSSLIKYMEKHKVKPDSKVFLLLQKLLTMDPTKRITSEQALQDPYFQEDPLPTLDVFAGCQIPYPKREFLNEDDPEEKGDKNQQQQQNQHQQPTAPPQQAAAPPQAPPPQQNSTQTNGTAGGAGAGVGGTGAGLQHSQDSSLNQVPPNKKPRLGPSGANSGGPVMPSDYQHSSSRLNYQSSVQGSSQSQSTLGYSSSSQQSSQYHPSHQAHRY
# T3 sequence (Q52WX2 whole entry): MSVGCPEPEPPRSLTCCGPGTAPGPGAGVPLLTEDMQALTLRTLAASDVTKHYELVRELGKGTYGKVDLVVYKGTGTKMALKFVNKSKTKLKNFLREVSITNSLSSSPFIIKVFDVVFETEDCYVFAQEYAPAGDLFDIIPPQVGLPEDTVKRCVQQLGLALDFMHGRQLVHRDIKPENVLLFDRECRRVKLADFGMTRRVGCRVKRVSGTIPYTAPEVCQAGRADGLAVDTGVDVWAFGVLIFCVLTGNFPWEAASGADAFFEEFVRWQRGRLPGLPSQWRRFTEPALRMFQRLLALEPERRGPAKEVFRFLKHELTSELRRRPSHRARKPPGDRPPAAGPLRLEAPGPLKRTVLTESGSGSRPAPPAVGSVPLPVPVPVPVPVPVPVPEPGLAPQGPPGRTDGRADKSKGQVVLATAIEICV
Structure (SMILES),remaining binding at 1 µM [1] [%],remaining binding at 1 µM [2] [%],remaining binding at 1 µM [3] [%],remaining binding at 1 µM [4] [%],remaining binding at 1 µM [5] [%],remaining binding at 1 µM [6] [%]
"Cc1ccc(C(=O)Nc2ccc(CN3CCN(C)CC3)c(C(F)(F)F)c2)cc1C#Cc1cnc2c(Nc3cnn(C)c3)cccn12 [Example 1, 4-methyl-3-((8-((1-methyl-1H-pyrazol-4-yl)amino)imidazo[1,2-a]pyridin-3-yl)ethynyl)-N-(4-((4-methylpiperazin-1-yl)methyl)-3-(trifluoromethyl)phenyl)benzamide]",85,95,89,51,0,2
"Cc1cn(-c2cc(NC(=O)c3ccc(C)c(C#Cc4cnc5c(Nc6cnn(C)c6)cccn45)c3)cc(C(F)(F)F)c2)cn1 [Example 12, 4-methyl-N-(3-(4-methyl-1H-imidazol-1-yl)-5-(trifluoromethyl)phenyl)-3-((8-((1-methyl-1H-pyrazol-4-yl)amino)imidazo[1,2-a]pyridin-3-yl)ethynyl)benzamide]",95,81,94,100,19,19
Cc1ccc(NC(=O)C2(C(=O)Nc3ccc(F)cc3)CC2)cc1C#Cc1cnc2c(Nc3cnn(C(C)C)c3)cccn12 [Example 78],83,100,100,89,100,90
